One assay concerns the target T1, Myostatin (Homo sapiens, UniProt O14793).
T1 construct: active myostatin (also called mature myostatin) is a homodimer consisting of two C-terminal growth factor domains; purchased R&D systems 788-G8/CF
T1 sequence (O14793 267-375): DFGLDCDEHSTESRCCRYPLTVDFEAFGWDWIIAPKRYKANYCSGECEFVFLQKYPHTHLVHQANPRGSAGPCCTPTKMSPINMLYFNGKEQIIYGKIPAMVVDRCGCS
In words: HepG2 reporter gene assay, Evaluation Procedure (2): 2-concentrations assay, myostatin inhibition. In kind it is cell-based. The essentials:
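Myostatin inhibition was measured in a luciferase reporter assay using HepG2 cells transfected with a pGL3 vector containing 12 CAGA repeats upstream of luciferase. After 20 to 24 hours with 10 ng/mL myostatin, cells received One-Glo:PBS (1:1) at 100 µL/well, were shaken for 5 min, and 20 µL/well was moved to 384-well plates and read on an Envision 2104.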
Background: Reporter assays use an easily measured gene product as a stand-in for the process of interest.

For a further assay, the target named is T2, GDF-11 (Homo sapiens, UniProt O95390).
T2 construct: purchased R&D systems 1958-GD-G8/CF
T2 sequence (O95390 299-407): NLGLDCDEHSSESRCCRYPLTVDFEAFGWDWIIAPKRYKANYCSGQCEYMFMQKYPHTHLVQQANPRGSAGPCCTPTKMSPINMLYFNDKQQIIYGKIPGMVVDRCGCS
Description: HepG2 reporter gene assay, Evaluation Procedure (2): 2-concentrations assay, GDF-11 inhibition. Type of assay: cell-based. The gist of the method:
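HepG2 cells carrying the transfected pGL3(CAGA)12-luc reporter, a pGL3 vector with luciferase placed downstream of 12 CAGA repeats, were stimulated with GDF-11 at a final 10 ng/mL together with test peptide. Blank wells received no GDF-11 and no peptide. Plates were incubated 20 to 24 hours at 37°C with 5% CO2. Luminescence from One-Glo substrate was read to calculate percent inhibition.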

Where [1] appears, read: HepG2, read-out: inhibition rate (myostatin inhibition assay).
The mark [2] stands for this setting: Table 7-3/7-4, myostatin 10 ng/mL, peptide at the higher of the 2 concentrations, HepG2, read-out: inhibition rate (myostatin inhibition assay).
Where [3] appears, read: Table 7-3/7-4, myostatin 10 ng/mL, peptide at the lower of the 2 concentrations, HepG2, read-out: inhibition rate (myostatin inhibition assay).
Where [4] appears, read: HepG2, first GDF-11 column of Table 7-3/7-4, GDF-11 10 ng/mL, peptide at the lower of the 2 concentrations, read-out: inhibition rate (GDF-11 inhibition assay).
[5] abbreviates: HepG2, second GDF-11 column of Table 7-3/7-4, GDF-11 10 ng/mL, peptide at the higher of the 2 concentrations, read-out: inhibition rate (GDF-11 inhibition assay).

Like-named read-outs stand apart in the source and are kept apart here. Starred links: 1 amine or outer side, 2 acyl side, 3 side chain; linkers in the order of their positions; H or OH if unused. Positions of bridges follow the written chain, without caps; N, C: chain ends. Non-standard residues stand in square brackets, D forms with d. Residues, ends and D or L forms follow the SMILES beside them. Groups on a side chain read outwards from the residue. *: point of attachment. X3 = O=C(O)COc1ccccc1-c1ccc(C[C@H](N[*:1])C(=O)[*:2])cc1; Phe(3-OCH2COOH) = N[C@@H](Cc1cccc(OCC(=O)O)c1)C(=O)O; Phe(4-COOH) = N[C@@H](Cc1ccc(C(=O)O)cc1)C(=O)O; Trp(7-aza) = N[C@@H](Cc1c[nH]c2ncccc12)C(=O)O; Piperazinyl(4-CH2COOH) = O=C(O)CN1CCN(*)CC1; Gly(decyl) = CCCCCCCCCC[C@H](N)C(=O)O; Gly(N(CH2)3COOH) = O=C(O)CCCNCC(=O)O; X1 = CCCCCCC[C@H](N[*:1])C(=O)[*:2]; NMeF = CN[C@@H](Cc1ccccc1)C(=O)O; NMeE = CN[C@@H](CCC(=O)O)C(=O)O; NMeA = CN[C@@H](C)C(=O)O; X9 = NC(=O)CC1CCN(*)CC1; CO = O=C([*:1])[*:2]; Sar = CNCC(=O)O

Consider `CCCCCCC[C@@H]1NC(=O)[C@H](Cc2ccccc2)N(C)C(=O)[C@H](CCCNC(=N)N)NC(=O)[C@H](Cc2ccc(C(=O)O)cc2)NC(=O)[C@H](Cc2ccc(-c3ccccc3OCC(=O)O)cc2)NC(=O)[C@H](C)N(C)C(=O)[C@H]([C@@H](C)CC)NC(=O)[C@H](Cc2ccccc2)N(C)C(=O)[C@H](Cc2ccc(O)cc2)NC(=O)[C@H](Cc2c[nH]c3ccccc23)NC(=O)[C@H](C)NC(=O)CN(CCCC(=O)O)C(=O)CSC[C@H](C(=O)O)NC(=O)[C@H](Cc2ccccc2)N(C)C(=O)[C@H](C)N(C)C1=O` [Myostatin_99_v371] ({CH2CO}-[Gly(N(CH2)3COOH)]AWY[NMeF]I[NMeA][X3][Phe(4-COOH)]R[NMeF][X1][NMeA][NMeF][dC]-OH; thioether N-15), for which, on Myostatin (setting [1]), the inhibition at 0.03 µM came to 100% and the inhibition at 0.1 µM was found to be 100%. Further, the inhibition at GDF-11 (HepG2, read-out: inhibition rate (GDF-11 inhibition assay), Table 7-3/7-4, GDF-11 10 ng/mL, peptide at the higher of the 2 concentrations) was 0%. In addition, the inhibition at GDF-11 (HepG2, read-out: inhibition rate (GDF-11 inhibition assay), Table 7-3/7-4, GDF-11 10 ng/mL, peptide at the lower of the 2 concentrations) was 0%.

As for `CC[C@H](C)[C@@H]1NC(=O)[C@H](Cc2ccccc2)N(C)C(=O)[C@H](Cc2ccc(O)cc2)NC(=O)[C@H](Cc2c[nH]c3ncccc23)NC(=O)[C@H](C)NC(=O)CN(CCCC(=O)O)C(=O)CSC[C@H](C(=O)NCC(=O)N[C@H](CCC(=O)O)C(=O)NCC(=O)N[C@H](CCCCN)C(=O)O)NC(=O)[C@H](Cc2ccccc2)N(C)C(=O)[C@H](C)N(C)C(=O)[C@H](CC(C)C)NC(=O)[C@H](Cc2ccccc2)N(C)C(=O)[C@H](CCCNC(=N)N)NC(=O)[C@H](Cc2ccc(C(=O)O)cc2)NC(=O)[C@H](Cc2ccccc2)NC(=O)CN(C)C1=O` [Myostatin_99_v30] ({CH2CO}-[Gly(N(CH2)3COOH)]A[Trp(7-aza)]Y[NMeF]I[Sar]F[Phe(4-COOH)]R[NMeF]L[NMeA][NMeF][dC]G[dE]G[dK]-OH; thioether N-15), the inhibition at 0.03 µM at Myostatin (peptide 30nM, Myostatin 10 ng/mL, HepG2, read-out: Myostatin Inhibition 30nM) turned out to be 31%; at GDF-11 (HepG2, peptide 30nM, GDF-11 10 ng/mL, read-out: GDF11 Inhibition 30nM), 0%. The inhibition at 0.1 µM at Myostatin (peptide 100nM, Myostatin 10 ng/mL, HepG2, read-out: Myostatin Inhibition 100nM) was 60%; on GDF-11 (HepG2, peptide 100nM, GDF-11 10 ng/mL, read-out: GDF11 Inhibition 100nM) it was 0%.

In the case of `CCCCCCC[C@@H]1NC(=O)[C@H](Cc2ccccc2)N(C)C(=O)[C@H](CCCNC(=N)N)NC(=O)[C@H](Cc2ccc(C(=O)O)cc2)NC(=O)[C@H](Cc2cccc(OCC(=O)O)c2)NC(=O)CN(C)C(=O)[C@H]([C@@H](C)CC)NC(=O)[C@H](Cc2ccccc2)N(C)C(=O)[C@H](Cc2ccc(O)cc2)NC(=O)[C@H](Cc2c[nH]c3ccccc23)NC(=O)[C@H](C)NC(=O)[C@H](C)NC(=O)CSC[C@H](C(=O)N[C@@H](CCCCNC(=O)N2CCN(CC(=O)O)CC2)C(=O)O)NC(=O)[C@H](Cc2ccccc2)N(C)C(=O)[C@H](C)N(C)C1=O` [Myostatin_99_v427] ({CH2CO}-AAWY[NMeF]I[Sar][Phe(3-OCH2COOH)][Phe(4-COOH)]R[NMeF][X1][NMeA][NMeF][dC]K([CO-Piperazinyl(4-CH2COOH)])-OH; thioether N-15), the inhibition at 0.1 µM on Myostatin (setting [2]) is 100%. Further, on Myostatin (setting [3]), the inhibition at 0.03 µM is 98%. For the same compound, the inhibition on GDF-11 (setting [4]) and at GDF-11 (setting [5]) was 0% throughout.

With `CCCCCCCCCC[C@@H]1NC(=O)[C@H](Cc2ccccc2)N(C)C(=O)[C@H](CCCNC(=N)N)NC(=O)[C@H](Cc2ccc(C(=O)O)cc2)NC(=O)[C@H](Cc2cccc(OCC(=O)O)c2)NC(=O)[C@H]2CCCN2C(=O)[C@H]([C@@H](C)CC)NC(=O)[C@H](Cc2ccccc2)N(C)C(=O)[C@H](Cc2ccc(O)cc2)NC(=O)[C@H](Cc2c[nH]c3ccccc23)NC(=O)[C@H](C)NC(=O)[C@H](C)NC(=O)CSC[C@H](C(=O)N2CCC(CC(N)=O)CC2)NC(=O)[C@H](Cc2ccccc2)N(C)C(=O)[C@H](CCC(=O)O)N(C)C1=O` [Myostatin_99_v347] ({CH2CO}-AAWY[NMeF]I[dP][Phe(3-OCH2COOH)][Phe(4-COOH)]R[NMeF][Gly(decyl)][NMeE][NMeF][dC]-X9; thioether N-15), the inhibition at 0.1 µM at Myostatin (setting [2]) came out at 100%. Also, the inhibition at 0.03 µM at Myostatin (setting [3]) came to 100%. The inhibition at GDF-11 (setting [4]) is 0%; at GDF-11 (setting [5]), 8%.

The values above are taken from patent EP4786487A1, “PEPTIDE” (Peptidream Inc, priority 2023, dated 2025).
